# Experiments:
# five colon cancer cells = assay: FITC-labeled peptide immunofluorescence assay, colon cancer cells; format: cell-based, human; conditions: fluorescein-labeled peptide, 10 μM, 1 hour at RT, Figure 1B
# CCD841 cells = assay: FITC-labeled peptide immunofluorescence assay, control cells; format: cell-based, human; conditions: fluorescein-labeled peptide, 10 μM, 1 hour at RT, Figure 1B
# [1] = tested on: five colon cancer cell lines; assay: Flow cytometry; format: cell-based, human; conditions: FITC-L20 10 μM, 1 hour at RT, all colon cancer cells, Figure 1C
# [2] = tested on: gastric cancer cells including AGS, SNU216, and SNU638; assay: L20 peptide binding to gastric cancer cells; format: cell-based; conditions: Figure 1D
sequence,measurement,setting,value
ANLNLWTDYIRW [L20 peptide],fluorescence on colon cancer cells,five colon cancer cells,very intense fluorescence
same,fluorescence on the control cell line,CCD841 cells,negligible
same,FACS fluorescence compared to the control peptide,[1],right shift of fluorescence
same,fluorescence in gastric cancer cell lines compared to the control cells,[2],did not show higher fluorescence
